According to patent US11292781B2, “Pyrimidine tricyclic enone derivatives for inhibition of ROR-gamma and other uses” (REATA PHARMACEUTICALS, INC., priority 2016, dated 2022):

Experiments:
[1] = test system: IL-17A levels in primary human CD4+ T cells differentiated into Th17 cells; test: IL-17 release from differentiated primary human T-cells (IL-17A HTRF); type: cell-based; conditions: primary human CD4+ T cells, Th17 differentiation, 46-hour incubation; read-out: hIL17 IC50
Experimental: C. IL-17 Release from Differentiated Primary Human T-Cells and Cell Viability Primary human cryopreserved CD4+ T Cells (Lonza, donor #0000402103) were plated in Lymphocyte Growth Medium-3 (LGM-3, Lonza) according to the manufacturer's recommendations, and allowed to recover for approximately 3 hours at 37° C. with 5% CO2 in a humidified atmosphere. […] Triplicate wells were plated for each test condition. DMSO (final concentration ≤0.1%) was used as the vehicle. Immediately after plating, CD4+ T cells were activated by adding Dynabeads Human T-Activator CD3/CD28 (Life Technologies; bead-to-cell ratio of 1:2.5) and differentiated into Th17 cells by adding a mixture of the following cytokines: transforming growth factor-β (TGF-β, 5 ng/mL), IL-6 (20 ng/mL), IL-23 (20 ng/mL), and […] (10 ng/mL). Undifferentiated control cells received only cytokine IL-2 (50 ng/mL). All human recombinant cytokines were purchased from R&D Systems. Following a 46-hour incubation at 37° C. with 5% CO2 in a humidified atmosphere, the plates were centrifuged for 3 minutes at 250×g, and half of the supernatant was transferred to a new plate to be used in the IL-17A assay (see below). Cell viability was assessed in the original plate using the CyQuant Direct Assay (Life Technologies). CyQuant values from test compound samples were normalized to those from DMSO-treated samples. The concentration of IL-17A in the supernatant was measured using the Homogeneous Time-Resolved Fluorescence (HTRF) assay (Cisbio Bioassays) according to the manufacturer's protocol. The assay was performed at room temperature in low volume, solid white 384-well plates (Greiner Bio-One). […] A non-linear regression analysis with log (inhibitor) vs. normalized response using a variable slope was applied to fit the data and determine the IC50 values for inhibition of IL-17A levels and cell viability.

[2] = test system: Nrf2 transcription factor (GST ARE luciferase reporter in AREc32 cells); test: AREc32 luciferase reporter assay; type: cell-based, human; conditions: EC2×: concentration required to increase GST ARE luciferase reporter activity by 2-fold, 19 hours
Text: A. AREc32 Luciferase Reporter Assay The AREc32 luciferase reporter assay allows for quantitative assessment of the endogenous activity of the Nrf2 transcription factor in cultured mammalian cells. AREc32 cells are derived from MCF-7 human breast carcinoma cells that were stably transfected with a reporter construct that contains the firefly luciferase gene located downstream of eight copies of the rat GSTA2 antioxidant response element (ARE) sequence (Wang et al., 2006; CXR Biosciences). Active NRF2 binds to the ARE sequences and increases expression of the firefly luciferase gene. […] Luciferase activity was determined using the ONE-Glo Luciferase assay (Promega). The luminescence signal was measured on a BMG Pherastar microplate reader. The mean luminescence value from test compound-treated wells was normalized to that from DMSO-treated wells and was represented as fold-induction. Data were analyzed using GraphPad Prism version 6.00 for Windows, GraphPad Software, La Jolla Calif. USA. A non-linear regression curve with log (agonist) vs. response using a variable slope was used to fit the data. […] EC2× values were interpolated from the curve.

Compound	IC50 [1] [nM]	HRF2 ARE 2× [2] [nM]
COc1nc(Nc2ccncc2)nc2c1CC[C@@H]1[C@@H](C)C(=O)C(C#N)=C[C@@]21C [T8]	185	534
COc1nc(-c2ccnc3ccccc23)nc2c1CC[C@@H]1[C@@H](C)C(=O)C(C#N)=C[C@@]21C [T9]	67	510
C[C@H]1C(=O)C(C#N)=C[C@@]2(C)c3nc(C4CCCCC4)nc(-c4ccccc4)c3CC[C@H]12 [T23]	40	144
C[C@H]1C(=O)C(C#N)=C[C@@]2(C)c3nc(-c4ccnc5ccccc45)nc(-c4ccccc4)c3CC[C@H]12 [T32]	68	272
COc1cc(-c2nc(-c3ccccc3)c3c(n2)[C@]2(C)C=C(C#N)C(=O)[C@H](C)[C@H]2CC3)ccn1 [T33]	40	480
CC1=C2CCc3c(-c4ccccc4F)nc(-c4ccnc5ccccc45)nc3[C@]2(C)C=C(C#N)C1=O [T38]	374	>2000
C[C@H]1C(=O)C(C#N)=C[C@@]2(C)c3nc(-c4ccnc5ccccc45)nc(-c4cccc(F)c4)c3CC[C@H]12 [T39]	63	427
C[C@H]1C(=O)C(C#N)=C[C@@]2(C)c3nc(-c4ccnc5ccccc45)nc(-c4ccc(F)cc4)c3CC[C@H]12 [T40]	63	273
CC(C)Oc1nc(-c2ccnc3ccccc23)nc2c1CC[C@@H]1[C@@H](C)C(=O)C(C#N)=C[C@@]21C [T41]	64	528
CC(C)c1nc(-c2ccnc3ccccc23)nc2c1CC[C@@H]1[C@@H](C)C(=O)C(C#N)=C[C@@]21C [T42]	165	513
Cc1cc(-c2nc(-c3ccccc3)c3c(n2)[C@]2(C)C=C(C#N)C(=O)[C@H](C)[C@H]2CC3)ccn1 [T43]	39	278
C[C@H]1C(=O)C(C#N)=C[C@@]2(C)c3nc(C4CCN(C(=O)OC(C)(C)C)CC4)nc(-c4ccccc4)c3CC[C@H]12 [T44]	60	596
CC(=O)N1CCC(c2nc(-c3ccccc3)c3c(n2)[C@]2(C)C=C(C#N)C(=O)[C@H](C)[C@H]2CC3)CC1 [T46]	177	735
C[C@H]1C(=O)C(C#N)=C[C@@]2(C)c3nc(C4=CCCN(C(=O)OC(C)(C)C)C4)nc(-c4ccccc4)c3CC[C@H]12 [T47]	38	622
C[C@H]1C(=O)C(C#N)=C[C@@]2(C)c3nc(C4=CCCNC4)nc(-c4ccccc4)c3CC[C@H]12.Cl [T48]	225	460
CC(=O)N1CCC=C(c2nc(-c3ccccc3)c3c(n2)[C@]2(C)C=C(C#N)C(=O)[C@H](C)[C@H]2CC3)C1 [T49]	181	491
C[C@H]1C(=O)C(C#N)=C[C@@]2(C)c3nc(-c4ccnc5ccccc45)nc(-c4ccc(F)cc4F)c3CC[C@H]12 [T52]	35	272
C[C@H]1C(=O)C(C#N)=C[C@@]2(C)c3nc(-c4ccnc(C5CC5)c4)nc(-c4ccccc4F)c3CC[C@H]12 [T53]	33	380
C[C@H]1C(=O)C(C#N)=C[C@@]2(C)c3nc(-c4ccnc(C(F)(F)F)c4)nc(-c4ccccc4F)c3CC[C@H]12 [T54]	31	483
Cc1cnccc1-c1nc(-c2ccccc2F)c2c(n1)[C@]1(C)CC(C#N)=C(O)[C@H](C)[C@H]1CC2 [T55]	590	>2000
C[C@H]1C(=O)C(C#N)=C[C@@]2(C)c3nc(-c4ccncc4F)nc(-c4ccccc4F)c3CC[C@H]12 [T57]	77	419
Cc1cc(-c2nc(-c3ccc(F)cc3)c3c(n2)[C@]2(C)C=C(C(N)=O)C(=O)[C@H](C)[C@H]2CC3)ccn1 [T184]	–	1832
Cc1cc(-c2nc(-c3ccc(F)cc3)c3c(n2)[C@]2(C)CC(C#N)C(=O)[C@H](C)[C@H]2CC3)ccn1 (stereo partly shown) [T187]	–	>2000

Second part, led by results:

IC50 [1] [nM]	Compound	HRF2 ARE 2× [2] [nM]
69	Cc1cncc(-c2nc(-c3ccccc3F)c3c(n2)[C@]2(C)C=C(C#N)C(=O)[C@H](C)[C@H]2CC3)c1 [T58]	155
34	C[C@H]1C(=O)C(C#N)=C[C@@]2(C)c3nc(-c4cnc5ccccc5c4)nc(-c4ccccc4F)c3CC[C@H]12 [T59]	311
60	CC(=O)Nc1cc(-c2nc(-c3ccccc3F)c3c(n2)[C@]2(C)C=C(C#N)C(=O)[C@H](C)[C@H]2CC3)ccn1 [T61]	461
39	C[C@H]1C(=O)C(C#N)=C[C@@]2(C)c3nc(-c4cccc5cccnc45)nc(-c4ccccc4F)c3CC[C@H]12 [T62]	401
21	Cc1cc(-c2nc(-c3ccccc3F)c3c(n2)[C@]2(C)C=C(C#N)C(=O)[C@H](C)[C@H]2CC3)c2cccc(F)c2n1 [T63]	259
35	C[C@H]1C(=O)C(C#N)=C[C@@]2(C)c3nc(-c4ccnc(N5CCOCC5)c4)nc(-c4ccccc4F)c3CC[C@H]12 [T64]	425
29	C[C@H]1C(=O)C(C#N)=C[C@@]2(C)c3nc(-c4ccnc(-c5ccccc5)c4)nc(-c4ccccc4F)c3CC[C@H]12 [T65]	463
39	C[C@H]1C(=O)C(C#N)=C[C@@]2(C)c3nc(-c4cncc5ccccc45)nc(-c4ccccc4F)c3CC[C@H]12 [T66]	190
63	C[C@H]1C(=O)C(C#N)=C[C@@]2(C)c3nc(-c4cnn5ccccc45)nc(-c4ccccc4F)c3CC[C@H]12 [T67]	208
31	Cc1cccc2c(-c3nc(-c4ccccc4F)c4c(n3)[C@]3(C)C=C(C#N)C(=O)[C@H](C)[C@H]3CC4)ccnc12 [T68]	253
20	Cc1cc(-c2nc(-c3ccccc3F)c3c(n2)[C@]2(C)C=C(C#N)C(=O)[C@H](C)[C@H]2CC3)c2ccccc2n1 [T69]	227
61	Cc1nc(C)c(-c2nc(-c3ccccc3F)c3c(n2)[C@]2(C)C=C(C#N)C(=O)[C@H](C)[C@H]2CC3)s1 [T70]	391
198	Cc1nc(-c2nc(-c3ccccc3F)c3c(n2)[C@]2(C)C=C(C#N)C(=O)[C@H](C)[C@H]2CC3)no1 [T71]	780
69	Cc1ccc2nccc(-c3nc(-c4ccccc4F)c4c(n3)[C@]3(C)C=C(C#N)C(=O)[C@H](C)[C@H]3CC4)c2c1 [T73]	407
49	C[C@H]1C(=O)C(C#N)=C[C@@]2(C)c3nc(-c4ncnc5ccccc45)nc(-c4ccccc4F)c3CC[C@H]12 [T74]	507
42	C[C@H]1C(=O)C(C#N)=C[C@@]2(C)c3nc(-c4nccc5ccccc45)nc(-c4ccccc4F)c3CC[C@H]12 [T75]	552
35	C[C@H]1C(=O)C(C#N)=C[C@@]2(C)c3nc(-c4ccnc5cc(F)ccc45)nc(-c4ccccc4F)c3CC[C@H]12 [T76]	315
31	C[C@H]1C(=O)C(C#N)=C[C@@]2(C)c3nc(-c4ccnc5c(F)cccc45)nc(-c4ccccc4F)c3CC[C@H]12 [T77]	264
89	Cc1cc(-c2nc(-c3ccccc3F)c3c(n2)[C@]2(C)C=C(C#N)C(=O)[C@H](C)[C@H]2CC3)ncn1 [T78]	629
143	C[C@H]1C(=O)C(C#N)=C[C@@]2(C)c3nc(-c4ccnnc4)nc(-c4ccccc4F)c3CC[C@H]12 [T79]	109
58	C[C@H]1C(=O)C(C#N)=C[C@@]2(C)c3nc(-c4ccnc5c4CCC5)nc(-c4ccccc4F)c3CC[C@H]12 [T80]	312
36	C[C@H]1C(=O)C(C#N)=C[C@@]2(C)c3nc(-c4cccc5ncccc45)nc(-c4ccccc4F)c3CC[C@H]12 [T84]	321
